In brackets after ≈: the same amount, converted by molar mass. Read-outs that look alike come from different tables or passages of the source. Residues, ends and D or L forms follow the SMILES beside them. No end group written: not given here.
Tests used:
[1] = tested on: human colorectal adenocarcinoma cell line HT-29; assay type: cell-based; details: 24 hours, maximum 200 μg/ml
Procedure: (§1) The cytotoxic effects of the peptides on different human tumour cells were measured using the MTT colorimetric assay (Mosmann, 1983). […] Dissolved MIT is converted to an insoluble purple formazan by cleavage of the tetrazolium ring by dehydrogenase enzymes. This water insoluble formazan can be solubilized using isopropanol or other solvents and the dissolved material is measured spectrophotometrically. The absorbance was measured as a function of concentration of converted dye. The conversion of the soluble dye to the insoluble purple formazan is utilized in assays for measurement of cell proliferation. […] We used this assay to measure the degree of cell death caused by the peptides. MCF-7 was maintained in EMEM, A2058 in DMEM and […]-29 in RPMI-1640 medium supplemented with 10% heat inactivated […] and 1% L-glutamine-L-alanine in a humidified atmosphere of 5% CO2 at 37° C. The human embryonic fibroblast cell line, MRC-5 (which is normal fibroblasts), was cultured as a monolayer in MEM medium, under the same conditions as described for the tumour cell lines. Cells to be used in the assay were grown to a minimum of 75% confluency, trypsinated and split to single cell suspension, counted and centrifuged at 1500 rpm for 10 min. The cell pellet was resuspended to a concentration of 2×10^5 cells/ml (HT-29) or 1×10^5 (MRC-5, MCF7 and A2058) in DMEM without FBS and L-glutamine-L-alanine (assay-medium). All cell lines were routinely tested for mycoplasma infection using a PCR-based mycoplasma detection kit (MycoSensor PCR Assay Kit, Stratagene), following the supplier's instructions. All cell lines were mycoplasma free. The cytotoxicity was measured using the MTT method (Mosmann, 1983), with minor modifications. Different human tumour cells (1-2×10^5) were applied in 96-well culture plates in a volume of 100 μl DMEM medium and incubated at 37° C. for 24 hours. The medium was removed and the cells were treated with 100 μl of peptide solution (concentrations ranging from 0 to 200 μg/ml), diluted in a) RPMI-1640 medium supplemented with 5% heat inactivated FBS, or b) RPMI-1640 medium without FBS. The plates were incubated at 37° C. for 24 hours. Cells treated with Triton X-100 (1%) was used as positive control (100% killing) whereas cells plus medium only were used as negative control. […] A volume of 70 μl of the supernatant was then removed and […] (0.04 M HCl in isopropanol) added to each well. The plate was placed on a shaker for 1 hour at room temperature and read spectrophotometrically at 590 nm in a microtiter plate reader (DTX880 Multimode Detector, Beckman Coulter).

[2] = tested on: human breast malignant carcinoma cell line MCF-7; assay type: cell-based; details: 24 hours, maximum 200 μg/ml
Procedure: as §1

[3] = tested on: human skin malignant melanoma cell line A2058; assay type: cell-based; details: 24 hours, maximum 200 μg/ml
Procedure: as §1

[4] = tested on: human embryonic lung fibroblast cell line MRC-5; assay type: cell-based; details: normal fibroblasts, 24 hours, maximum 200 μg/ml
Procedure: as §1

E. coli (ATCC 25922) = assay type: cell-based, Escherichia coli
Procedure: (§2) The antibacterial activities of the different peptides were determined by continuous monitoring of bacterial growth with a Bioscreen C microbiology reader (Labsystems Oy, Helsinki, Finland). The test was performed in 100-well flat-bottomed honeycomb plates, in which 50 μl of test fractions were incubated with 50 μl of a suspension of an actively growing culture of bacteria diluted in Mueller Hinton medium to a starting concentration of 3×10^4 cells per ml. […] [NT] 13032) and S. aureus (ATCC 9144), were chosen as test bacteria. […] Polymyxin B (Sigma, St.

S. aureus (ATCC 9144) = assay type: cell-based, Staphylococcus aureus; details: ATCC 9144
Procedure: as §2

Botrytis cinerea 101 = details: 48 h
Procedure: (§3) The various derivates of P17 (brominated and non-brominated) were tested for their ability to inhibit fungal growth of the yeast strains Saccaharomyces cerevisiae sp, Candida albicans (ATCC 10231) and Rodotorula sp., and the filamentous strains Botrytis cinerea 101, Penicillium rogveforti, and Fusarium sp. All strains, except C. albicans, were a gift from Prof. A. Tronsmo (The Norwegian University of Life Sciences, Ås, Norway). The fungi were cultivated on potato dextrose agar, supplemented with 2% glucose, at room temperature. Before antifungal testing, the fungi were dissolved in potato dextrose broth (Difco) at half-strength. Cell concentration was determined and adjusted after counting in a Bürker chamber. The filamentous fungi were filtered through a piece of cotton before counting. An aliquot of 50 μl of fungal spores (final concentration 2×10^5 spores per ml) were inoculated in microtiter plates (96 wells) along with 50 μl peptide solution. Peptides, dissolved in distilled water, were tested at final concentrations (two-fold dilutions) ranging from 50 μM to 0.1 μM. Cultures were grown in the dark (without shaking) and with a moist chamber at 25° C. (37° C. for C. albicans). Growth inhibition was determined microscopically after 48 h of incubation. MIC was determined as the lowest concentration of peptide resulting in 50% inhibition of visible growth.

[5] = tested on: Candida albicans (ATCC 10231); details: ATCC 10231, 48 h
Procedure: as §3

Saccharomyces cerevisiae = details: 48 h
Procedure: as §3

Pseudomonas aeruginosa = assay type: cell-based
Procedure: as §2

[6] = tested on: Salmonella enterica serovar typhimurium (ATCC 14028); test: Bacterial cell viability, lux luminescence and OD600, with or without LPS; assay type: cell-based; details: co-incubation with 2.5 μM Aeromonas salmonicida LPS
From the text: To evaluate the effect of antimicrobial peptides on the viability of bacteria in a fast and reliable manner we used the lux CDABE operon from Photorhabdus luminescens as a reporter system in gram negative test bacteria and the modified luxABCDE operon in S. aureus (Vesterlund et al. 2004). Bacterial bioluminescence is directly dependent on metabolic activity, since reduction equivalents are needed to drive light emission. Any form of interruption of bacterial cell integrity or metabolism will therefore be detected as a reduction in light emission.
For the assay we used S. aureus (RN4220), E. coli K-12 and Salmonella enterica serovar typhimurium (ATCC 14028) transformed with the respective lux-operon containing plasmids (Vesterlund et al. 2004).
For each experiment a fresh colony was picked from Luria-Bertani plates supplemented with 10 μg/ml of erythromycin in case of S. aureus and with 100 μg/ml of ampicillin in case of E. coli and S. enterica serovar Typhimurium. Each colony was suspended in 5 ml of Müller-Hinton medium with appropriate antibiotics. The culture was incubated over night at 37° C. in a shaking incubator. The next morning 0.5 ml of this culture was transferred to 30 ml fresh MH medium in an Erlenmeyer-flask supplemented with the respective antibiotic. The flask was incubated (200 rpm shaking; 37° C.) until an OD600 of 0.5-0.8 was reached. The culture was then diluted to an OD600 of about 0.02-0.03 before transfer to the 96 well opaque plates with optical bottom (Packard ViewPlate) used for the assay.
The synthesized peptides were dissolved in water and aliquots frozen at −18° C. until use. Twofold dilutions of test peptides (final concentrations ranging from 0.31 to 80 μM) were directly prepared in 96 well microtiter plates in a volume of 10 μl in water. 90 μl is of indicator bacteria in MH medium were added directly to the prepared and pre-warmed (30 minutes at 37° C.) plate before starting the measurement in a Victor multiplate reader (Perkin Elmer) at 37° C. Both OD600 and luminescence in counts per second (cps) were followed over 5 hours in measuring intervals of 5 minutes. The plates where shaken before each measurement (20 sec.; 5 mm orbital shaking; 10 sec waiting). The growth curves and light emission curves were drawn and evaluated to determine the MIC for each indicator strain. The MIC was defined as the concentration of test compound causing more than 50% reduction in bioluminescence (cps) or optical density (OD600) after 5 hours, compared to the growth control. Cecropin P1 was used as positive control. The results (table 14a-b) confirm the results obtained in example 2, showing a pronounced antibacterial effect of the longest peptide fragments. […] The partial peptides P17 HC (1-20), both bromated and unbromated, inhibit growth only in higher concentrations.
A second plate with an otherwise similar setup (as described for the luminescence assay in example 3) was prepared, but with addition of Aeromonas salmonicida LPS to the peptide dilutions before pre-warming. The LPS end concentration in each well was approximately 2.5 μM.

[7] = tested on: C. glutamicum (ATCC 13032); assay type: cell-based, Corynebacterium glutamicum
Procedure: as §2

[8] = RPMI-1640 medium containing 5% FBS

Molecule	Antitumoral activity IC50, HT-29 [1, 8]	Antitumoral activity IC50, HT-29 ([1]; serum-free RPMI-1640 medium)	Antitumoral activity IC50, MCF-7 [2, 8]	Antitumoral activity IC50, MCF-7 ([2]; serum-free RPMI-1640 medium)	Antitumoral activity IC50, A2058 [3, 8]	Antitumoral activity IC50, A2058 ([3]; serum-free RPMI-1640 medium)	IC50, MRC-5 [4, 8]	IC50, MRC-5 ([4]; serum-free RPMI-1640 medium)	Minimal inhibitory concentration, E. coli (E. coli (ATCC 25922)) [µM]	Minimal inhibitory concentration, S. aureus (S. aureus (ATCC 9144)) [µM]	Minimal inhibitory concentration (MIC), Botrytis cinerea (Botrytis cinerea 101) [µM]	Minimal inhibitory concentration (MIC), Candida albicans [5] [µM]	Minimal inhibitory concentration (MIC), Saccharomyces cerevisiae (Saccharomyces cerevisiae) [µM]	Minimal inhibitory concentration, P. aeruginosa (Pseudomonas aeruginosa) [µM]	MIC, more than 50% reduction in optical density, S. enterica, P + LPS ([6]; OD600, 5 hours) [µM]	MIC, more than 50% reduction in luminescence, S. enterica, P + LPS ([6]; luminescence (cps), 5 hours) [µM]	Minimal inhibitory concentration, C. glutamicum [7] [µM]
NC(Cc1c[nH]c2ccc(Br)cc12)C(=O)O [5-D/L-Br-Trp, 5-Bromo-D/L-tryptophan, reference compound]	— (The symbol “—” denotes no activity within the concentration range tested.)	* (The symbol “*” denotes 30-50% killing at the highest concentration tested.)	— (The symbol “—” denotes no activity within the concentration range tested.)	— (The symbol “—” denotes no activity within the concentration range tested.)	— (The symbol “—” denotes no activity within the concentration range tested.)	— (The symbol “—” denotes no activity within the concentration range tested.)	* (The symbol “*” denotes 30-50% killing at the highest concentration tested.)	* (The symbol “*” denotes 30-50% killing at the highest concentration tested.)									
NCCCC[C@H](NC(=O)[C@H](CCCCN)NC(=O)[C@H](Cc1ccccc1)NC(=O)C(Cc1c[nH]c2ccc(Br)cc12)NC(=O)CN)C(=O)O (stereo partly shown) [P17 HC-Br (1-5)] (HELM PEPTIDE1{G.[O=C(C(Cc1c[nH]c2ccc(Br)cc12)N[*:1])[*:2]].F.K.K}$$$$V2.0; N-terminus and C-terminus assumed)									25 (≈ 18.6 µg/mL)	>100	>100	>100	>100	>50			
CC(C)[C@H](NC(=O)[C@H](CCCCN)NC(=O)[C@H](Cc1c[nH]cn1)NC(=O)[C@H](Cc1ccccc1)NC(=O)[C@@H](NC(=O)[C@H](CCCCN)NC(=O)[C@H](CCCCN)NC(=O)[C@H](Cc1ccccc1)NC(=O)C(Cc1c[nH]c2ccc(Br)cc12)NC(=O)CN)[C@@H](C)O)C(=O)O (stereo partly shown) [P17 HC-Br (1-10)] (HELM PEPTIDE1{G.[O=C(C(Cc1c[nH]c2ccc(Br)cc12)N[*:1])[*:2]].F.K.K.T.F.H.K.V}$$$$V2.0; N-terminus and C-terminus assumed)									25 (≈ 33.9 µg/mL)	>100	50 (≈ 67.8 µg/mL)	25 (≈ 33.9 µg/mL)	25 (≈ 33.9 µg/mL)	>50	40	20	
GQRGCSALGF [P17 HC (21-30)]									>100	>100	>100	>100	>100	>100			>100
GWFKK [P17 HC (1-5)]									>100	>100	>100	>100	>100	>100			>100
GWFKKTFHKV [P17 HC (1-10)]									100	>100	100	25	25	100			12.5
